US6451332B1, “Pesticidal composition having high pesticidal ingredient vaporization rate method for controlling pests, and method for producing a pesticidal composition” (Sumitomo Chemical Company, Limited, priority 1997, dated 2002)

Experiments:
[1] = Vaporization rate of the pesticidal ingredient (silica gel trap, acetone extraction, gas chromatography); type: physicochemical; conditions: 10 g composition heated with 100 g calcium oxide and water; air sucked at 30 L/min for 5 min
Description: Pesticidal devices were prepared in the same method as test examples 5 and 8, and had water poured to the calcium oxide. After the reaction of calcium oxide with water started, the pesticidal device was replaced to a glass funnel with a lid. The vaporizing pesticidal ingredient was then trapped to silica gel in glass column connected to the funnel by sucking air at 30 L/min for 5 m in. Subsequently, the pesticidal ingredient present in the silica gel was extracted with acetone. The vaporization rate for the pesticidal ingredient was then measured by the quantitative analysis of gas chromatography.
A pesticidal device was prepared by placing:
1) 10 g of the pesticidal composition obtained in example 2 was placed interior to the separating wall of the container presented in FIG. 1 and
2) 100 g of calcium oxide with 1-20 mesh was placed exterior to the said separating wall but within the said container. The acquired pesticidal device was then tested for the vaporization rate by utilizing the procedure recited in test example 10.

[2] = Japanese Laid-open patent No. sho-53-109945A, table 2, sample #23; cited from earlier work

| SMILES | vaporization rate for the pesticidal ingredient [1] [%] | vaporization rate [2] [%] |
| --- | --- | --- |
| COC(=O)c1cc(Cl)ccc1NS(=O)(=O)C(F)(F)F [2-methoxycarbonyl-4-chlorotrifluoromethanesulfonanilide] | 78.5 | – |
| CC(C)=CC1C(C(=O)OCN2C(=O)C3=C(CCCC3)C2=O)C1(C)C (stereo not drawn) [tetramethrin] | 88.1 | 63.0 |
